The assay concerns the target T1, PI3Kα H1047R (T47D cells) (Homo sapiens, UniProt P42336, H1047R).
T1 construct: endogenous in cells; host or cells: T47D cells
In words: PI3Kα cellular assay: pAKT HTRF in T47D cells after EGF stimulation. The class given is cell-based. The settings on record: for IC50: T47D cells (PI3Kα H1047R), pAKT S473 HTRF, EGF stimulation. The gist of the method: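 T47D cells (PIK3CA H1047R) serum-starved 16 h, then treated 1 h at 37 °C with compound (10,000 nM top, 3-fold steps to 0.5 nM). After 10 min stimulation with 20 ng/mL EGF, cells were lysed and pAKT measured by HTRF.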
(In general: Time-resolved FRET reads energy transfer from a long-lived donor to a nearby acceptor.)

Bounds are passed on as bounds.

T1 sequence (P42336 whole entry H1047R): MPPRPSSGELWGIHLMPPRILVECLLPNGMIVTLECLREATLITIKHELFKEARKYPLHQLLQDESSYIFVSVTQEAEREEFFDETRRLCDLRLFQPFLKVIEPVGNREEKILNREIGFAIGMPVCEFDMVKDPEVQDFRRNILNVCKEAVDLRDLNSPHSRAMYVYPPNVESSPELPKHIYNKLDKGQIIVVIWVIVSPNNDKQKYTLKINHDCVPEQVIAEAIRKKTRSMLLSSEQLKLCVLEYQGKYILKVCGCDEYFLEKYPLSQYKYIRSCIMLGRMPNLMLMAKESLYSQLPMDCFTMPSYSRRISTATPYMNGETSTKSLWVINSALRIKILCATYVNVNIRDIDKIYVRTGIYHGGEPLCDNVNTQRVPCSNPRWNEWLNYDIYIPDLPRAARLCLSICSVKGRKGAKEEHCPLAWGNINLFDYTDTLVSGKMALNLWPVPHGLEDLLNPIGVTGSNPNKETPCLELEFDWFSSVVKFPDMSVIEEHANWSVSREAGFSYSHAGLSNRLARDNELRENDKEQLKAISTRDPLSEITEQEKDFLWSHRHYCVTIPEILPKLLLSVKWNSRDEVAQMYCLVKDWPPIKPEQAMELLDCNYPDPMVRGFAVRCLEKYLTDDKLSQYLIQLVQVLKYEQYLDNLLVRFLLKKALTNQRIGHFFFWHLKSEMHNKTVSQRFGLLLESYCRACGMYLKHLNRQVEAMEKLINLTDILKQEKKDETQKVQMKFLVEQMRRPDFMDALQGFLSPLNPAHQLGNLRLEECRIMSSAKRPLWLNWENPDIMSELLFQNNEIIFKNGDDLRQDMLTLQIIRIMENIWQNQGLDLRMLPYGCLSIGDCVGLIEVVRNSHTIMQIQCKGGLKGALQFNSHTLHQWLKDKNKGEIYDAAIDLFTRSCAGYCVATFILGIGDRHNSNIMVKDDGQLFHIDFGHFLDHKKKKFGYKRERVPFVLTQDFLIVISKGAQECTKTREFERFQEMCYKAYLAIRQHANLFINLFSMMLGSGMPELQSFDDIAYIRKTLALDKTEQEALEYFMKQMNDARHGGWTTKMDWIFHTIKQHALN
T1 sequence (P27986 whole entry partner): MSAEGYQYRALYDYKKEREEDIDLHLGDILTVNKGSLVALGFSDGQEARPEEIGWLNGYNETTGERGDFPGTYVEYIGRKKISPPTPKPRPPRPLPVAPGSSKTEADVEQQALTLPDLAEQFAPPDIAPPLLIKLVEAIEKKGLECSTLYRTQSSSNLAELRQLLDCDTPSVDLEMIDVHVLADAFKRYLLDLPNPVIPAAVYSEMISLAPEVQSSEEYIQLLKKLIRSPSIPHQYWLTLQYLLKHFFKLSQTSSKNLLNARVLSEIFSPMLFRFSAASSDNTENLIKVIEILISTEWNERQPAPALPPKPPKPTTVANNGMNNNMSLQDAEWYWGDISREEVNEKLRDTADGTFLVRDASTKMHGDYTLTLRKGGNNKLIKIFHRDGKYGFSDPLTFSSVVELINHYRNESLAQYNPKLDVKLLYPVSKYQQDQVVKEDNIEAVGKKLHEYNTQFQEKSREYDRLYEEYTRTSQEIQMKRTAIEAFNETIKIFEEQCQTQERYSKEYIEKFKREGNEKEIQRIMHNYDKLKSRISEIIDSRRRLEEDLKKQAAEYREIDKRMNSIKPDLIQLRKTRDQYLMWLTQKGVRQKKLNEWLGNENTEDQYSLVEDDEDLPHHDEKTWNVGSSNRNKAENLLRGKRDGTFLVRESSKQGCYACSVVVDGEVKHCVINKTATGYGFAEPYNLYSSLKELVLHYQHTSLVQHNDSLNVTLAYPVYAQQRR

A word on the IC50: it is the point on the concentration scale where inhibition reaches its midpoint. Lower therefore signals greater potency in that assay. For the compound `Cc1cc(C(C)Nc2ccccc2C(=O)O)c2nc(-c3cnc4c(c3)c(C)nn4C)c(C)c(=O)n2c1` (stereo not drawn) [Compound 1411, 2-((1-(2-(1,3-dimethyl-1H-pyrazolo[3,4-b]pyridin-5-yl)-3,7-dimethyl-4-oxo-4H-pyrido[1,2-a]pyrimidin-9-yl)ethyl)amino)benzoic acid], the IC50 is under 100 nM and the “T47D pAKT S473 HTRF IC50 (H1047R): T47D (H1047R) selectivity over SKBR3 (WT)” value was “A (A denotes >20-fold)”.

Regarding `Cc1cc(C(C)Nc2ccccc2C(=O)O)c2nc(N3Cc4ccccc4C3)c(C)c(=O)n2c1.O=C(O)C(F)(F)F` (stereo not drawn) [Compound 1412, 2-((1-(2-(isoindolin-2-yl)-3,7-dimethyl-4-oxo-4H-pyrido[1,2-a]pyrimidin-9-yl)ethyl)amino)benzoic acid trifluoroacetate], the IC50 was under 100 nM and the “T47D pAKT S473 HTRF IC50 (H1047R): T47D (H1047R) selectivity over SKBR3 (WT)” value was “A (A denotes >20-fold)”.

Consider `Cc1cc(C(C)Nc2ccccc2C(=O)O)c2nc(-c3cc(C)c4oc(=O)[nH]c4c3)cc(=O)n2c1` (stereo not drawn) [Compound 1413, 2-((1-(7-methyl-2-(7-methyl-2-oxo-2,3-dihydrobenzo[d]oxazol-5-yl)-4-oxo-4H-pyrido[1,2-a]pyrimidin-9-yl)ethyl)amino)benzoic acid], for which the IC50 lay in the range of 100 to 500 nM and the “T47D pAKT S473 HTRF IC50 (H1047R): T47D (H1047R) selectivity over SKBR3 (WT)” value is “A (A denotes >20-fold)”.
